Like-named read-outs stand apart in the source and are kept apart here.
Key:
Puccinia triticina = assay: Wheat Brown Rust fungicidal activity (PUCCRT); format: in vivo; settings: rate 100 ppm; for pest or weed control at 100 ppm: Puccinia triticina
Procedure: Technical grades of materials were dissolved in acetone, which were then mixed with nine volumes of water containing 110 ppm Triton X-100. The fungicide solutions were applied onto wheat seedlings using an automated booth sprayer to run-off. All sprayed plants were allowed to air dry prior to further handling. All fungicides were evaluated using the aforementioned method for their activity vs. all target diseases. Wheat leaf blotch and brown rust activity were also evaluated using track spray applications, in which case the fungicides were formulated as EC formulations, containing 0.1% Trycol 5941 in the spray solutions. Wheat plants (variety Yuma) were grown from seed in a greenhouse in 50% mineral soil/50% soil-less Metro mix until the first leaf was fully emerged, with 7-10 seedlings per pot. These plants were inoculated with an aqueous spore suspension of Septoria tritici either prior to or after fungicide treatments. After inoculation the plants were kept in 100% relative humidity (one day in a dark dew chamber followed by two to three days in a lighted dew chamber at 20° C.) to permit spores to germinate and infect the leaf. The plants were then transferred to a greenhouse set at 20° C. for disease to develop. When disease symptoms were fully expressed on the 1st leaves of untreated plants, infection levels were assessed on a scale of 0 to 100 percent disease severity. Percent disease control was calculated using the ratio of disease severity on treated plants relative to untreated plants. Evaluation of Fungicidal Activity: Wheat Brown Rust (Puccinia triticina; Synonym: Puccinia recondite f sp. tritici; Bayer code PUCCRT) Wheat plants (variety Yuma) were grown from seed in a greenhouse in 50% mineral soil/50% soil-less Metro mix until the first leaf was fully emerged, with 7-10 seedlings per pot. These plants were inoculated with an aqueous spore suspension of Puccinia triticina either prior to or after fungicide treatments. After inoculation the plants were kept in a dark dew room at 22° C. with 100% relative humidity overnight to permit spores to germinate and infect the leaf. The plants were then transferred to a greenhouse set at 24° C. for disease to develop. Fungicide formulation, application and disease assessment followed the procedures as described in the Example A.

[1] = test system: Mycosphaerella graminicola; Anamorph: Septoria tritici; assay: Leaf Blotch of Wheat fungicidal activity (SEPTTR); format: in vivo; settings: rate 100 ppm; for pest or weed control at 100 ppm: Zymoseptoria tritici
Procedure: Evaluation of Fungicidal Activity: Leaf Blotch of Wheat (Mycosphaerella graminicola; Anamorph: Septoria tritici; Bayer code […]) Technical grades of materials were dissolved in acetone, which were then mixed with nine volumes of water containing 110 ppm Triton X-100. The fungicide solutions were applied onto wheat seedlings using an automated booth sprayer to run-off. All sprayed plants were allowed to air dry prior to further handling. All fungicides were evaluated using the aforementioned method for their activity vs. all target diseases. Wheat leaf blotch and brown rust activity were also evaluated using track spray applications, in which case the fungicides were formulated as EC formulations, containing 0.1% Trycol 5941 in the spray solutions. Wheat plants (variety Yuma) were grown from seed in a greenhouse in 50% mineral soil/50% soil-less Metro mix until the first leaf was fully emerged, with 7-10 seedlings per pot. These plants were inoculated with an aqueous spore suspension of Septoria tritici either prior to or after fungicide treatments. After inoculation the plants were kept in 100% relative humidity (one day in a dark dew chamber followed by two to three days in a lighted dew chamber at 20° C.) to permit spores to germinate and infect the leaf. The plants were then transferred to a greenhouse set at 20° C. for disease to develop. When disease symptoms were fully expressed on the 1st leaves of untreated plants, infection levels were assessed on a scale of 0 to 100 percent disease severity. Percent disease control was calculated using the ratio of disease severity on treated plants relative to untreated plants.

[2] = 24 h, 1 Day Protectant, read-out: Disease control PUCCRT 1DP
[3] = 72 h, 3 Day Curative, read-out: Disease control PUCCRT 3DC
[4] = 24 h, 1 Day Protectant, read-out: Disease control SEPTTR 1DP
[5] = 72 h, 3 Day Curative, read-out: Disease control SEPTTR 3DC

| Structure (SMILES) | pest or weed control at 100 ppm (Puccinia triticina; [2]) [%] | pest or weed control at 100 ppm (Puccinia triticina; [3]) [%] | pest or weed control at 100 ppm [1, 4] [%] | pest or weed control at 100 ppm [1, 5] [%] | Disease control PUCCRT 1DP (Puccinia triticina; 1 Day Protectant) | Disease control SEPTTR 1DP ([1]; 1 Day Protectant) | Disease control SEPTTR 3DC ([1]; 3 Day Curative) |
| --- | --- | --- | --- | --- | --- | --- | --- |
| COc1ccnc(C(=O)N[C@H]2COC[C@H](CCc3ccccc3)[C@@H](OC(=O)C3CC3)[C@H](C)OC2=O)c1O [Compound F15] | 80 to 100 | 0 to 80 | 80 to 100 | 80 to 100 |  |  |  |
| COc1ccnc(C(=O)N[C@H]2COC[C@H](CCc3ccccc3)[C@@H](Oc3ccc(C)cc3)[C@H](C)OC2=O)c1O [Compound F16] | 80 to 100 | 0 to 80 | 80 to 100 | 0 to 80 |  |  |  |
| COc1ccnc(C(=O)N[C@H]2COC[C@H](Cc3ccc(F)cc3)[C@@H](OCCCC(F)(F)F)[C@H](C)OC2=O)c1O [Compound F17] | 80 to 100 | 0 to 80 | 80 to 100 | 80 to 100 |  |  |  |
| COc1ccnc(C(=O)N[C@H]2COC[C@H](Cc3ccc(F)cc3)[C@@H](OC3CCCC3)[C@H](C)OC2=O)c1O [Compound F18] | 80 to 100 | 80 to 100 | 80 to 100 | 0 to 80 |  |  |  |
| CCCCCO[C@@H]1[C@@H](Cc2ccc(F)cc2)COC[C@H](NC(=O)c2nccc(OC)c2O)C(=O)O[C@H]1C [Compound F19] | 80 to 100 | 80 to 100 | 80 to 100 | 80 to 100 |  |  |  |
| COc1ccnc(C(=O)N[C@H]2COC[C@H](Cc3ccc(F)cc3)[C@@H](OCC(C)C)[C@H](C)OC2=O)c1O [Compound F21] | 80 to 100 | 80 to 100 | 80 to 100 | 80 to 100 |  |  |  |
| COc1ccnc(C(=O)N[C@H]2COC[C@H](Cc3ccc(C)cc3)[C@@H](OC(=O)C3CC3)[C@H](C)OC2=O)c1O [Compound F22] | 0 to 80 | 0 to 80 |  | 0 to 80 |  |  |  |
| COc1ccnc(C(=O)N[C@H]2COC[C@H](Cc3ccc(C)cc3)[C@@H](OCCCC(F)(F)F)[C@H](C)OC2=O)c1O [Compound F23] | 80 to 100 | 0 to 80 | 80 to 100 | 0 to 80 |  |  |  |
| COc1ccnc(C(=O)N[C@H]2COC[C@H](Cc3ccc(C)cc3)[C@@H](Oc3ccccc3)[C@H](C)OC2=O)c1O [Compound F24] | 80 to 100 | 0 to 80 | 80 to 100 | 0 to 80 |  |  |  |
| COc1ccnc(C(=O)N[C@H]2COC[C@H](Cc3ccc(C)cc3)[C@@H](OC3CCCC3)[C@H](C)OC2=O)c1O [Compound F25] | 80 to 100 | 0 to 80 | 80 to 100 | 80 to 100 |  |  |  |
| COc1ccnc(C(=O)N[C@H]2COC[C@H](Cc3ccc(C(F)(F)F)cc3)[C@@H](OC(=O)C3CC3)[C@H](C)OC2=O)c1O [Compound F26] | 0 to 80 |  | 80 to 100 | 0 to 80 |  |  |  |
| COc1ccnc(C(=O)N[C@H]2COC[C@H](Cc3ccc(C(F)(F)F)cc3)[C@@H](OCC(C)C)[C@H](C)OC2=O)c1O [Compound F27] | 80 to 100 | 0 to 80 | 80 to 100 | 0 to 80 |  |  |  |
| COc1ccnc(C(=O)N[C@H]2COC[C@H](Cc3ccc(C(F)(F)F)cc3)[C@@H](OC3CCCC3)[C@H](C)OC2=O)c1O [Compound F28] | 80 to 100 | 0 to 80 | 80 to 100 | 0 to 80 |  |  |  |
| CCCO[C@@H]1[C@@H](Cc2ccc(C(F)(F)F)cc2)COC[C@H](NC(=O)c2nccc(OC)c2O)C(=O)O[C@H]1C [Compound F29] | 80 to 100 | 0 to 80 | 80 to 100 | 80 to 100 |  |  |  |
| COc1ccnc(C(=O)N[C@H]2COC[C@H](Cc3ccc(C(F)(F)F)cc3)[C@@H](OCC(C)C)[C@H](C)OC2=O)c1O [Compound F30] |  |  |  |  | A (80-100) | A (80-100) | B (More than 0-Less than 80) |
| CCCCCO[C@@H]1[C@@H](Cc2ccc(C(F)(F)F)cc2)COC[C@H](NC(=O)c2nccc(OC)c2O)C(=O)O[C@H]1C [Compound F31] | 0 to 80 |  | 80 to 100 | 0 to 80 |  |  |  |
| COc1ccnc(C(=O)N[C@H]2COC[C@H](CC(F)(F)F)[C@@H](OCC(C)C)[C@H](C)OC2=O)c1O [Compound F32] | 80 to 100 | 0 to 80 | 80 to 100 | 0 to 80 |  |  |  |
| COc1ccnc(C(=O)N[C@H]2COC[C@H](CC(F)(F)F)[C@@H](OC3CCCC3)[C@H](C)OC2=O)c1O [Compound F33] | 0 to 80 |  | 80 to 100 | 0 to 80 |  |  |  |
| COc1ccnc(C(=O)N[C@H]2COC[C@H](CCC(C)C)[C@@H](OCC(C)C)[C@H](C)OC2=O)c1O [Compound F34] | 80 to 100 | 80 to 100 | 80 to 100 | 80 to 100 |  |  |  |
| COc1ccnc(C(=O)N[C@H]2COC[C@H](CCC(C)C)[C@@H](OCCCC(F)(F)F)[C@H](C)OC2=O)c1O [Compound F35] | 80 to 100 |  | 80 to 100 | 0 to 80 |  |  |  |
| COc1ccnc(C(=O)N[C@H]2COC[C@H](CCC(C)C)[C@@H](OC(=O)C3CC3)[C@H](C)OC2=O)c1O [Compound F36] | 80 to 100 | 0 to 80 | 80 to 100 | 80 to 100 |  |  |  |
| COc1ccnc(C(=O)N[C@H]2COC[C@H](CCC(C)C)[C@@H](Oc3ccc(C)cc3)[C@H](C)OC2=O)c1O [Compound F37] | 80 to 100 | 0 to 80 | 80 to 100 | 80 to 100 |  |  |  |
| CCCO[C@@H]1[C@@H](CCC(C)C)COC[C@H](NC(=O)c2nccc(OC)c2O)C(=O)O[C@H]1C [Compound F38] | 80 to 100 | 80 to 100 | 80 to 100 | 80 to 100 |  |  |  |
| COc1ccnc(C(=O)N[C@H]2COC[C@H](CCC(C)C)[C@@H](OC3CCCC3)[C@H](C)OC2=O)c1O [Compound F39] | 80 to 100 | 80 to 100 | 80 to 100 | 80 to 100 |  |  |  |
| COc1ccnc(C(=O)N[C@H]2COC[C@H](Cc3cc(F)c(F)c(F)c3)[C@@H](OCC(C)C)[C@H](C)OC2=O)c1O [Compound F40] | 0 to 80 |  | 80 to 100 | 80 to 100 |  |  |  |
| COc1ccnc(C(=O)N[C@H]2COC[C@H](Cc3ccc(C)cc3)[C@@H](OCC(C)C)[C@H](C)OC2=O)c1O [Compound F48, 3-hydroxy-N-((3S,7S,8R,9S)-8-isobutoxy-9-methyl-7-(4-methylbenzyl)-2-oxo-1,5-dioxonan-3-yl)-4-methoxypicolinamide] | 80 to 100 | 80 to 100 | 80 to 100 | 0 to 80 |  |  |  |

From patent US9179674B2, “Macrocyclic picolinamide compounds with fungicidal activity” (DOW AGROSCIENCES LLC, priority 2013, dated 2015)
